Measurements as given in patent publication US10052304B2, “Compositions and methods for cancer therapy” (UNIVERSITY OF IOWA RESEARCH FOUNDATION, priority 2015, dated 2018).
“Also recorded” adds a separate entry of the source.

Key:
NCI-H292 cells = assay: Clonogenic survival assay, NCI-H292 NSCLC cells; assay type: cell-based, human
Method: (§1) Treatment conditions for individual experiments are as described in the figure legends and summarized in the Supplemental Experimental Procedures.
(§2) 1-2×10^5 cells were plated in 60 mm cell culture dishes and grown in their respective media for 48 h before exposed to experimental conditions. […] For AdGPx1 experiments, cells were supplemented with 50 nM sodium selenite following transduction and throughout clonogenic growth. […] After treatment, cells were washed with PBS and clonogenic assay was completed in their respective media. Briefly, floating and attached cells were collected and total cells per plate were counted. An experimentally derived number of cells were plated into each well of a 6-well cell culture plate in their respective media. For HEL92.1.7 suspension cells, cells were seeded in a top layer of 0.4% (w/v) agarose to allow for quantifiable colony formation. […] Normalized survival fractions were calculated by comparing plating efficiencies of each treatment group against the control group within a given experiment.

HBEpC = settings: 1 h ascorbate + 5 μM carboplatin + 2 Gy IR
Method: (§3) After treatment, cells were washed with PBS and clonogenic assay was completed in their respective media as previously described (Fath et al., 2011). Treatment conditions for individual experiments are as described in the figure legends and summarized in the Supplemental Experimental Procedures.
as §2, with “formation. After sufficient time (7-12 days, cell type-dependent), cells were fixed in 70% ethanol and stained with a Brilliant Blue methanol solution.” for “formation.”

NHA = settings: 1 h ascorbate + 25 μM temozolomide + 2 Gy IR
Method: as §3
as §2, with “formation. After sufficient time (7-12 days, cell type-dependent), cells were fixed in 70% ethanol and stained with a Brilliant Blue methanol solution.” for “formation.”

U118 cells = assay: Clonogenic survival assay, U118 GBM cells; assay type: cell-based, human
Method: as §1, §2

[1] = Ascorbate quantification in mouse plasma, tumor and CSF after IP ascorbate; assay type: in vivo, mice
Method: Tumor xenografts were excised and flash frozen in liquid nitrogen until analysis. Mouse whole blood was collected by cardiac puncture, and plasma was collected after the sample was centrifuged at 500 g for 10 min and frozen until analysis. For patient samples, whole blood was collected from clinical trial patients (NaHeparin 75 USP units, BD Vacutainer® green top blood collection tube, 4 mL), and plasma was collected after centrifugation at 500 g for 10 min and aliquoted and stored at −80° C. until analysis.
Tumor xenografts were excised and flash frozen in liquid nitrogen until analysis. Mouse whole blood was collected by cardiac puncture, and plasma was collected after the sample was centrifuged at 500 g for 10 min and frozen until analysis. For patient samples, whole blood was collected from clinical trial patients (NaHeparin 75 USP units, BD Vacutainer® green top blood collection tube, 4 mL), and plasma was collected after centrifugation at 500 g for 10 min and aliquoted and stored at −80° C. until analysis. […] Briefly, samples were extracted in a buffer containing 90% methanol and 10% water with 250 μM DETAPAC (90:10, v/v), mixed, and incubated on ice for 10 min to precipitate protein. The samples were clarified by centrifugation (16 g, 10 min) with an Eppendorf model 5415D Microfuge. Specifically, samples were diluted at a ratio of 50 μL of plasma to 450 μL extraction buffer. These samples were then further diluted another 77.5 to 105-fold (therefore, 775-1,050 fold overall) in a buffer containing 72% methanol and 28% water with 250 μM DETAPAC (72:28, v/v). […] This protocol ensured that all samples had identical methanol content which is critical for accurate quantification (Vislisel et al., 2007). 100 μL aliquots of the samples or standards were placed in 96-well optical bottom black plates (Thermo Fisher Scientific, Rochester, N.Y., USA). The assay was initiated at room temperature by adding 100 μL of 2.3 mM 4-hydroxy-2,2,6,6-tetramethylpiperidinyloxyl (Tempol) in 2 M sodium acetate trihydrate buffer previously adjusted to pH 5.5 with acetic acid. […] Subsequently, 42 μL of 5.5 mM ortho-phenylenediamine (oPDA) in 2 M sodium acetate buffer (pH 5.5) was added to the samples. Kinetic measurements were immediately initiated and collected every 22 s using a TECAN SpectraFluor Plus plate reader (Tecan, Research Triangle Park, N.C., USA) for the fluorescent condensation product of the reaction of oPDA with DHA (3-dihydroxyethyl)furo[3,4-b]quinoxaline-1-one; λex=345 nm, λem=425 nm). […] Briefly, plasma samples were measured spectrophotometrically (265 nm; ε=13,000 M-1 cm-1) using an Implen Nanophotometer P-330 with a 250× dilution lid, path length=4.00×10-3 cm. The blank for each sample was a pair-‘pre-infusion’ plasma sample, which allowed removal of the background absorbance of plasma proteins and other constituents.
Briefly, mice were anesthetized (17.5 mg ml^−1 ketamine/2.5 mg ml^−1 xylazine mixture), restrained in a stereotaxic frame with an acute head angle, and the dura mater covering the foramen magnum was surgically exposed. CSF was collected by capillary action following minimal puncture of the dura mater and frozen until EPR analysis. Ascorbyl radical EPR spectra were obtained by placing the capillary tube into the bottom of a 250 mm×3 mm (ID) thin walled quartz EPR tube (707-SQ-250M Wilmad-Lab Glass, Vineland, N.J.) centered in a Bruker HS EPR cavity (Bruker, Billerica, Mass.). […]

aconitase = assay: Total cellular aconitase activity after ascorbate exposure; assay type: cell-based, human; settings: 15 pmol cell^−1 ascorbate for 1 h, NSCLC cell lysates
Method: Exponentially growing cells were scraped and frozen as dry pellets until assayed for total activity. Aconitase activity was measured as the rate of appearance of NADPH (at 340 nm; Beckman DU 800 spectrophotometer, Brea, Calif.) for 45 min during the reaction of 200 μg total sample protein with 200 μM NADP^+ and 10 U isocitrate dehydrogenase as previously described (Case et al., 2011). Maximal ETC complex activity was measured as previously described (Birch-Machin et al., 1994). Complex I activity was quantified as the rate of rotenone-inhibitable NADH oxidation (320 nm; c=6.22 mM^−1 cm^−1). Complex II activity as the difference in the rate of DCIP reduction in the presence and absence of succinate (at 600 nm; ε=19.1 mM^−1 cm^−1). Complex IV activity was assayed as the rate of oxidation of cytochrome c ([…]; ε=19.6 mM^−1 cm^−1). Rates of activities were normalized to total protein by Lowry.
Exponentially growing cells were scraped and frozen as dry pellets until assayed for total aconitase activity adapted from as previously described (Case et al., 2011). […] Protein was quantified by the Lowry method (Lowry et al., 1951). Aconitase activity was measured as the rate of appearance of NADPH (at 340 nm; Beckman DU 800 spectrophotometer, Brea, Calif.) for 45 min during the reaction of 200 μg total sample protein with 200 μM NADP+ and 10 U isocitrate dehydrogenase.

[2] = Example 1: two hours after last radiation treatment, 4 g/kg IP
[3] = Example 4: 1 h after IP ascorbate 4 g kg^−1, H292 xenograft mice

SMILES: O=C1O[C@H]([C@@H](O)CO)C(O)=C1O [ascorbate, L-ascorbic acid]
- sensitization to carboplatin + IR (clonogenic survival) (NCI-H292 cells; 1 h ascorbate + 5 μM carboplatin + 2 Gy IR vs Carbo+IR alone): significantly increased sensitivity to Carbo+IR; also recorded: selectively sensitized
- clonogenic survival / cell killing (NCI-H292 cells; ascorbate alone, 1 h exposure): more clonogenic cell killing in NSCLC cell lines than chemotherapy plus radiation; also recorded: dose-dependent clonogenic cell killing
- sensitization to carboplatin + IR (clonogenic survival) (HBEpC): not
- sensitization to temozolomide + IR (clonogenic survival) (NHA): not
- sensitization to temozolomide + IR (clonogenic survival) (U118 cells; 1 h ascorbate + 25 μM temozolomide + 2 Gy IR): selectively sensitized
- clonogenic survival / cell killing (U118 cells; ascorbate alone, increasing concentrations, 1 h): dose-dependent clonogenic cell killing
- plasma ascorbate concentration vs non-ascorbate treated mice [1, 2]: significantly higher
- tumor ascorbate concentration vs non-ascorbate treated mice [1, 2]: significantly higher
- ascorbate level in plasma [1, 3]: significantly increased ascorbate levels
- ascorbate level in tumor [1, 3]: significantly increased ascorbate levels
- ascorbate level in cerebrospinal fluid (ascorbyl radical EPR) ([1]; Example 4: 1 h after IP ascorbate 4 g kg^−1, healthy nude mice): significantly increased ascorbate levels
- aconitase activity (aconitase): inactivation
